In US5585383A, “Process for crystallizing a 4-azasteroid 5alpha-reductase inhibitor” (Merck & Co., Inc., priority 1995, dated 1996) one finds polymorph stability data, which are given here for 2 compounds.

“Also recorded” adds a separate entry of the source.

The nature of the data set: Relative stability of crystalline polymorphs (DSC, x-ray powder diffraction). It counts as physicochemical. The note with it: non-solvated crystalline forms of 4,7β-dimethyl-4-aza-5α-cholestan-3-one. On the procedure:
The crystallinity of each batch was determined primarily from Differential Scanning Calorimetry (DSC) employing a DuPont Model 910 Thermal Analyzer. However, any other reliable means may be employed to determine the crystallinity of a sample, such as x-ray powder diffraction, solid state NMR, or polarizing microscopy.
Generally, a DSC sample was prepared by weighing. 10 to 30 mg of material into a DSC cup and crimping the cup closed. Preferably, each DSC sample was run as soon as possible after preparation, most preferably within 15 minutes of preparation, because crystallinity increases with aging. Generally, samples were heated at a rate of 10° C./min from 10° C. to 100° C. under nitrogen. The DSC peaks were integrated and the measured heat of formation was divided by 46.6 J/g (the average heat of formation of samples confirmed by x-ray diffraction to contain no Form II) to calculate the percent crystallinity of the sample. The term percent crystallinity refers to the weight percent of 4,7β-dimethyl-4-aza-5α-cholestan-3-one sample weight in Form I.
X-ray diffraction was also employed to confirm DSC results. […] This method was not employed for quantitative analysis of the degree of crystallinity.

For `CC(C)CCC[C@@H](C)[C@H]1CC[C@H]2[C@@H]3[C@@H](C)C[C@H]4N(C)C(=O)CC[C@]4(C)[C@H]3CC[C@]12C` [Form I, 4,7β-dimethyl-4-aza-5α-cholestan-3-one], the polymorph stability result was “more stable, energetically favored polymorph”. To `CC(C)CCC[C@@H](C)[C@H]1CC[C@H]2[C@@H]3[C@@H](C)C[C@H]4N(C)C(=O)CC[C@]4(C)[C@H]3CC[C@]12C` [Form II, 4,7β-dimethyl-4-aza-5α-cholestan-3-one] belongs “transforms to Form I with time and/or mechanical manipulation; also recorded: less energetically favored polymorph”.
